In brackets after ≈: the same amount, converted by molar mass. Activity calls are given as the source filed them. No cut-off for these calls is given here.
Tests used:
Staphylococcus aureus [1] = test: Antibacterial activity against methicillin-resistant Staphylococcus aureus assessed as bacterial growth inhibition measured after 24 hrs by two fold serial dilution technique; assay type: functional
Enterococcus faecium = test: Antibacterial activity against Enterococcus faecium assessed as bacterial growth inhibition measured after 24 hrs by two fold serial dilution technique; assay type: functional
Staphylococcus aureus [2] = test: Antibacterial activity against Staphylococcus aureus assessed as bacterial growth inhibition measured after 24 hrs by two fold serial dilution technique; assay type: functional
Staphylococcus aureus [3] = test: Antibacterial activity against Staphylococcus aureus ATCC 25923 assessed as bacterial growth inhibition measured after 24 hrs by two fold serial dilution technique; assay type: functional
Staphylococcus aureus [4] = test: Antibacterial activity against Staphylococcus aureus ATCC 29213 assessed as bacterial growth inhibition measured after 24 hrs by two fold serial dilution technique; assay type: functional
Klebsiella pneumoniae = test: Antibacterial activity against Klebsiella pneumoniae assessed as bacterial growth inhibition measured after 24 hrs by two fold serial dilution technique; assay type: functional
Escherichia coli [5] = test: Antibacterial activity against Escherichia coli assessed as bacterial growth inhibition measured after 24 hrs by two fold serial dilution technique; assay type: functional
Pseudomonas aeruginosa [6] = test: Antibacterial activity against Pseudomonas aeruginosa assessed as bacterial growth inhibition measured after 24 hrs by two fold serial dilution technique; assay type: functional
Acinetobacter baumannii = test: Antibacterial activity against Acinetobacter baumannii assessed as bacterial growth inhibition measured after 24 hrs by two fold serial dilution technique; assay type: functional
Pseudomonas aeruginosa [7] = test: Antibacterial activity against Pseudomonas aeruginosa ATCC 27853 assessed as bacterial growth inhibition measured after 24 hrs by two fold serial dilution technique; assay type: functional
Escherichia coli [8] = test: Antibacterial activity against Escherichia coli ATCC 25922 assessed as bacterial growth inhibition measured after 24 hrs by two fold serial dilution technique; assay type: functional
[9] = Hemolytic activity in human RBC assessed as hemolysis incubated for 1 hr; assay type: toxicity, cell-based, Erythrocyte; conditions: red blood cells
Staphylococcus = test: Binding affinity to Staphylococcus aureus PBP2a measured after 6 hrs by ELISA; conditions: filed as positive allosteric modulator
Staphylococcus aureus [10] = test: Antibacterial activity against methicillin resistant Staphylococcus aureus treated over 10 serial passages measured after 24 hrs by resistance development assay; assay type: functional, organism-based

SMILES	MIC (Staphylococcus aureus [1]) [µg/mL]	MIC (Enterococcus faecium) [µg/mL]	MIC (Staphylococcus aureus [2]) [µg/mL]	MIC (Staphylococcus aureus [3]) [µg/mL]	MIC (Staphylococcus aureus [4]) [µg/mL]	MIC (Klebsiella pneumoniae) [µg/mL]	MIC (Escherichia coli [5]) [µg/mL]	MIC (Pseudomonas aeruginosa [6]) [µg/mL]	MIC (Acinetobacter baumannii) [µg/mL]	MIC (Pseudomonas aeruginosa [7]) [µg/mL]	MIC (Escherichia coli [8]) [µg/mL]	HC50 at 1 h [9] [µg/mL]	Activity (Staphylococcus) [µg/mL]	Activity (Staphylococcus aureus [10])
CO/N=C(\C(=O)N1CCN(c2ccc3c4c(cccc24)C(=O)N(OC)C3=O)CC1)c1csc(N)n1	128 (≈ 259 µM)	2 (≈ 4.04 µM)	128 (≈ 259 µM)	64 (≈ 129 µM)	64 (≈ 129 µM)	128 (≈ 259 µM)	64 (≈ 129 µM)	128 (≈ 259 µM)	4 (≈ 8.09 µM)	32 (≈ 64.7 µM)	64 (≈ 129 µM)	513	5.43	–
CN(C)CCN1C(=O)c2cccc3c(Br)ccc(c23)C1=O	–	–	–	–	–	–	–	–	–	–	–	–	7.08	–
CCn1cc(C(=O)O)c(=O)c2cc(F)c(N3CCNCC3)cc21 [NORFLOXACIN]	16 (≈ 50.1 µM)	8 (≈ 25.1 µM)	8 (≈ 25.1 µM)	16 (≈ 50.1 µM)	16 (≈ 50.1 µM)	4 (≈ 12.5 µM)	2 (≈ 6.26 µM)	4 (≈ 12.5 µM)	1 (≈ 3.13 µM)	2 (≈ 6.26 µM)	4 (≈ 12.5 µM)	–	7.67	inactive
CO/N=C(\C(=O)N1CCN(c2ccc3c4c(cccc24)C(=O)N(CCO)C3=O)CC1)c1csc(N)n1	2 (≈ 3.93 µM)	16 (≈ 31.5 µM)	64 (≈ 126 µM)	16 (≈ 31.5 µM)	32 (≈ 62.9 µM)	64 (≈ 126 µM)	16 (≈ 31.5 µM)	16 (≈ 31.5 µM)	16 (≈ 31.5 µM)	64 (≈ 126 µM)	64 (≈ 126 µM)	214	–	–
CCON1C(=O)c2cccc3c(N4CCN(C(=O)/C(=N\OC)c5csc(N)n5)CC4)ccc(c23)C1=O	8 (≈ 15.7 µM)	8 (≈ 15.7 µM)	128 (≈ 252 µM)	64 (≈ 126 µM)	32 (≈ 62.9 µM)	16 (≈ 31.5 µM)	64 (≈ 126 µM)	64 (≈ 126 µM)	2 (≈ 3.93 µM)	32 (≈ 62.9 µM)	64 (≈ 126 µM)	509	–	–
CO/N=C(\C(=O)N1CCN(c2ccc3c4c(cccc24)C(=O)N(c2nccs2)C3=O)CC1)c1csc(N)n1	2 (≈ 3.65 µM)	16 (≈ 29.2 µM)	16 (≈ 29.2 µM)	16 (≈ 29.2 µM)	32 (≈ 58.4 µM)	64 (≈ 117 µM)	16 (≈ 29.2 µM)	64 (≈ 117 µM)	16 (≈ 29.2 µM)	64 (≈ 117 µM)	64 (≈ 117 µM)	311	–	–
CO/N=C(\C(=O)N1CCN(c2ccc3c4c(cccc24)C(=O)N(n2cnnc2)C3=O)CC1)c1csc(N)n1	2 (≈ 3.76 µM)	16 (≈ 30.1 µM)	128 (≈ 241 µM)	128 (≈ 241 µM)	1 (≈ 1.88 µM)	64 (≈ 120 µM)	32 (≈ 60.2 µM)	16 (≈ 30.1 µM)	16 (≈ 30.1 µM)	64 (≈ 120 µM)	64 (≈ 120 µM)	255	–	–
CO/N=C(\C(=O)N1CCN(c2ccc3c4c(cccc24)C(=O)N(C2CC2)C3=O)CC1)c1csc(N)n1	32 (≈ 63.4 µM)	32 (≈ 63.4 µM)	32 (≈ 63.4 µM)	16 (≈ 31.7 µM)	64 (≈ 127 µM)	32 (≈ 63.4 µM)	32 (≈ 63.4 µM)	64 (≈ 127 µM)	16 (≈ 31.7 µM)	128 (≈ 254 µM)	64 (≈ 127 µM)	266	–	–
CN(C)CCN1C(=O)c2cccc3c(N4CCNCC4)ccc(c23)C1=O	–	–	–	–	–	–	–	–	–	–	–	–	4.74	–
CO/N=C(\C(=O)N[C@@H]1C(=O)N2C(C(=O)O)=CCS[C@H]12)c1csc(N)n1	–	–	–	–	–	–	–	–	–	–	–	–	7.45	–
CCCCN1C(=O)c2cccc3c(N4CCN(C(=O)/C(=N\OC)c5csc(N)n5)CC4)ccc(c23)C1=O	8 (≈ 15.4 µM)	16 (≈ 30.7 µM)	64 (≈ 123 µM)	128 (≈ 246 µM)	64 (≈ 123 µM)	64 (≈ 123 µM)	32 (≈ 61.5 µM)	64 (≈ 123 µM)	8 (≈ 15.4 µM)	64 (≈ 123 µM)	64 (≈ 123 µM)	563	–	–
CO/N=C(\C(=O)N1CCN(c2ccc3c4c(cccc24)C(=O)N(c2ncc(C)s2)C3=O)CC1)c1csc(N)n1	8 (≈ 14.2 µM)	64 (≈ 114 µM)	128 (≈ 228 µM)	128 (≈ 228 µM)	64 (≈ 114 µM)	1 (≈ 1.78 µM)	128 (≈ 228 µM)	64 (≈ 114 µM)	128 (≈ 228 µM)	32 (≈ 57 µM)	16 (≈ 28.5 µM)	234	–	–
CO/N=C(\C(=O)N1CCN(c2ccc3c4c(cccc24)C(=O)N(Oc2ccccc2)C3=O)CC1)c1csc(N)n1	1 (≈ 1.8 µM)	64 (≈ 115 µM)	64 (≈ 115 µM)	16 (≈ 28.7 µM)	64 (≈ 115 µM)	32 (≈ 57.5 µM)	2 (≈ 3.59 µM)	32 (≈ 57.5 µM)	32 (≈ 57.5 µM)	32 (≈ 57.5 µM)	128 (≈ 230 µM)	223	–	–
CO/N=C(\C(=O)N1CCN(c2ccc3c4c(cccc24)C(=O)N(CCC(=O)O)C3=O)CC1)c1csc(N)n1	8 (≈ 14.9 µM)	16 (≈ 29.8 µM)	64 (≈ 119 µM)	16 (≈ 29.8 µM)	64 (≈ 119 µM)	128 (≈ 239 µM)	8 (≈ 14.9 µM)	16 (≈ 29.8 µM)	16 (≈ 29.8 µM)	32 (≈ 59.6 µM)	64 (≈ 119 µM)	210	–	–

— ChEMBL document CHEMBL5042496, “An unanticipated discovery towards novel naphthalimide corbelled aminothiazoximes as potential anti-MRSA agents and allosteric modulators for PBP2a” (Eur J Med Chem, 2022)
